# Data: ChEMBL document CHEMBL3885861, “Open TG-GATES”
# Organism: Rattus norvegicus
# Assay: Open TG-GATES - Regimen: Daily Repeat
# Assay type: toxicity, organism-based, Sprague-Dawley
# Design: regimen Daily Repeat, gender Male, age 6 weeks
# Conditions: in vivo, po, route gavage; for gamma-GTP / ALP / ALT / AST / CRE / Ca / Cl / DBIL / GLC / IP / K / LDH / Na / PL / RALB / TBIL / TC / TG / TP / BUN: tissue Plasma; for APTT / Bas / Eos / Fbg / Hb / Lym / MCH / MCHC / MCV / Mono / Plat / RBC / Ret / WBC / Ht: tissue Blood; for KIDNEY_L / KIDNEY_R / KIDNEY_TOTAL: tissue Kidney
# [1] = 75 mg/kg, 72 h, dose level Middle, time 3 day
# [2] = 75 mg/kg, […], dose level Middle, time 7 day
# [3] = 75 mg/kg, […], dose level Middle, time 14 day
# [4] = 75 mg/kg, […], dose level Middle, time 28 day
# [5] = 250 mg/kg, 72 h, dose level High, time 3 day
# [6] = 250 mg/kg, […], dose level High, time 7 day
# [7] = 250 mg/kg, […], dose level High, time 14 day
# [8] = 250 mg/kg, […], dose level High, time 28 day
smiles,measurement,setting,value
O=C1CN(/N=C/c2ccc(-c3ccc([N+](=O)[O-])cc3)o2)C(O)=N1 [DANTROLENE],gamma-GTP,"25 mg/kg, […], dose level Low, time 28 day",1.6 IU/L
same,TERMINAL_BW,[1],213.7 g
same,APTT,[1],19.1 s
same,Bas,[1],0%
same,Eos,[1],1%
same,Fbg,[1],223.4 mg/dL
same,Hb,[1],14.1 g/dL
same,Lym,[1],81.8%
same,MCH,[1],21.6 pg
same,MCHC,[1],33.8%
same,MCV,[1],63.8 fL
same,Mono,[1],7%
same,Plat,[1],126.6 x10_4/uL
same,RBC,[1],656.2 x10_4/ul
same,Ret,[1],2.9%
same,WBC,[1],97.1 x10_2/uL
same,KIDNEY_L,[1],1 g
same,KIDNEY_R,[1],1 g
same,KIDNEY_TOTAL,[1],2 g
same,ALP,[1],615 IU/L
same,ALT,[1],30.2 IU/L
same,AST,[1],63.2 IU/L
same,CRE,[1],0.6 mg/dL
same,Ca,[1],10.8 mg/dL
same,Cl,[1],105.2 meq/L
same,DBIL,[1],0.01 mg/dL
same,GLC,[1],188 mg/dL
same,IP,[1],6 mg/dL
same,K,[1],4.2 meq/L
same,LDH,[1],107.2 IU/L
same,Na,[1],140.6 meq/L
same,PL,[1],142 mg/dL
same,RALB,[1],3.9 g/dL
same,TBIL,[1],0.3 mg/dL
same,TC,[1],75.4 mg/dL
same,TG,[1],52.4 mg/dL
same,TP,[1],5.8 g/dL
same,gamma-GTP,[1],1 IU/L
same,TERMINAL_BW,[2],242.5 g
same,TERMINAL_BW,[3],289.9 g
same,TERMINAL_BW,[4],346.6 g
same,APTT,[2],17.1 s
same,Bas,[2],0%
same,Eos,[2],1%
same,Fbg,[2],207.4 mg/dL
same,Hb,[2],14.3 g/dL
same,Lym,[2],77.8%
same,MCH,[2],21.1 pg
same,MCHC,[2],33.5%
same,MCV,[2],63 fL
same,Mono,[2],8.4%
same,RBC,[2],679 x10_4/ul
same,Ret,[2],5.6%
same,WBC,[2],121.9 x10_2/uL
same,APTT,[3],16.7 s
same,Bas,[3],0%
same,Eos,[3],0.6%
same,Fbg,[3],222.4 mg/dL
same,Hb,[3],15.3 g/dL
same,Lym,[3],83.6%
same,MCH,[3],21 pg
same,MCHC,[3],34%
same,MCV,[3],61.8 fL
same,Mono,[3],5.8%
same,Plat,[3],114.6 x10_4/uL
same,RBC,[3],727.2 x10_4/ul
same,Ret,[3],4.7%
same,WBC,[3],127.2 x10_2/uL
same,APTT,[4],16.8 s
same,Bas,[4],0%
same,Eos,[4],1.2%
same,Fbg,[4],231.8 mg/dL
same,Hb,[4],15.7 g/dL
same,Ht,[4],46.3%
same,Lym,[4],79.4%
same,MCH,[4],19.5 pg
same,MCHC,[4],33.9%
same,MCV,[4],57.5 fL
same,Mono,[4],5.4%
same,Plat,[4],118.7 x10_4/uL
same,RBC,[4],806.6 x10_4/ul
same,Ret,[4],4.4%
same,KIDNEY_L,[2],1.1 g
same,KIDNEY_R,[2],1.1 g
same,KIDNEY_TOTAL,[2],2.1 g
same,KIDNEY_L,[3],1.2 g
same,KIDNEY_R,[3],1.2 g
same,KIDNEY_TOTAL,[3],2.4 g
same,KIDNEY_L,[4],1.4 g
same,KIDNEY_R,[4],1.4 g
same,KIDNEY_TOTAL,[4],2.8 g
same,ALP,[2],857.6 IU/L
same,ALT,[2],34 IU/L
same,AST,[2],61.2 IU/L
same,BUN,[2],18.2 mg/dL
same,CRE,[2],0.5 mg/dL
same,Ca,[2],10.8 mg/dL
same,Cl,[2],108.6 meq/L
same,DBIL,[2],0.014 mg/dL
same,GLC,[2],185.6 mg/dL
same,IP,[2],6.9 mg/dL
same,K,[2],4.8 meq/L
same,LDH,[2],107.4 IU/L
same,Na,[2],139.6 meq/L
same,PL,[2],139.4 mg/dL
same,RALB,[2],3.8 g/dL
same,TBIL,[2],0.4 mg/dL
same,TC,[2],65.6 mg/dL
same,TG,[2],74.4 mg/dL
same,TP,[2],5.7 g/dL
same,gamma-GTP,[2],1.4 IU/L
same,ALP,[3],636.8 IU/L
same,ALT,[3],30.6 IU/L
same,AST,[3],57.4 IU/L
same,BUN,[3],19.6 mg/dL
same,CRE,[3],0.6 mg/dL
same,Ca,[3],10.8 mg/dL
same,Cl,[3],105.4 meq/L
same,DBIL,[3],0.016 mg/dL
same,GLC,[3],186.8 mg/dL
same,IP,[3],6.5 mg/dL
same,K,[3],3.9 meq/L
same,LDH,[3],101.8 IU/L
same,Na,[3],141 meq/L
same,PL,[3],160.6 mg/dL
same,RALB,[3],3.8 g/dL
same,TBIL,[3],0.4 mg/dL
same,TC,[3],66.4 mg/dL
same,TG,[3],130.4 mg/dL
same,TP,[3],5.9 g/dL
same,gamma-GTP,[3],0.6 IU/L
same,ALP,[4],509.8 IU/L
same,ALT,[4],31.8 IU/L
same,AST,[4],53 IU/L
same,BUN,[4],18.8 mg/dL
same,CRE,[4],0.5 mg/dL
same,Ca,[4],10.7 mg/dL
same,Cl,[4],106.4 meq/L
same,DBIL,[4],0.05 mg/dL
same,GLC,[4],179.8 mg/dL
same,IP,[4],6.2 mg/dL
same,K,[4],4.2 meq/L
same,LDH,[4],122.4 IU/L
same,Na,[4],140 meq/L
same,PL,[4],169.6 mg/dL
same,RALB,[4],4 g/dL
same,TBIL,[4],0.2 mg/dL
same,TC,[4],72.4 mg/dL
same,TG,[4],139.8 mg/dL
same,TP,[4],6.2 g/dL
same,gamma-GTP,[4],1.2 IU/L
same,TERMINAL_BW,[5],193.8 g
same,APTT,[5],18.5 s
same,Bas,[5],0%
same,Eos,[5],1%
same,Fbg,[5],226.8 mg/dL
same,Hb,[5],14.7 g/dL
same,Lym,[5],85%
same,MCH,[5],21.1 pg
same,MCHC,[5],33.3%
same,MCV,[5],63.2 fL
same,Mono,[5],6.6%
same,Plat,[5],124.6 x10_4/uL
same,RBC,[5],696 x10_4/ul
same,Ret,[5],2.8%
same,WBC,[5],69 x10_2/uL
same,KIDNEY_L,[5],1 g
same,KIDNEY_R,[5],1 g
same,KIDNEY_TOTAL,[5],2 g
same,ALP,[5],630.6 IU/L
same,ALT,[5],29.6 IU/L
same,AST,[5],52.4 IU/L
same,BUN,[5],17.2 mg/dL
same,CRE,[5],0.5 mg/dL
same,Ca,[5],10.4 mg/dL
same,Cl,[5],103.8 meq/L
same,DBIL,[5],0.018 mg/dL
same,GLC,[5],174 mg/dL
same,IP,[5],8.2 mg/dL
same,K,[5],4.4 meq/L
same,LDH,[5],99.6 IU/L
same,Na,[5],139.2 meq/L
same,PL,[5],121.2 mg/dL
same,RALB,[5],3.7 g/dL
same,TBIL,[5],0.4 mg/dL
same,TC,[5],62.8 mg/dL
same,TG,[5],24 mg/dL
same,TP,[5],5.5 g/dL
same,gamma-GTP,[5],1 IU/L
same,TERMINAL_BW,[6],231.2 g
same,TERMINAL_BW,[7],269 g
same,TERMINAL_BW,[8],326.2 g
same,APTT,[6],18.1 s
same,Bas,[6],0%
same,Eos,[6],0.8%
same,Fbg,[6],233 mg/dL
same,Hb,[6],14.4 g/dL
same,Lym,[6],81.4%
same,MCH,[6],21.2 pg
same,MCHC,[6],33.5%
same,MCV,[6],63.3 fL
same,Mono,[6],6%
same,Plat,[6],108.9 x10_4/uL
same,RBC,[6],680.2 x10_4/ul
same,Ret,[6],5.8%
same,WBC,[6],128.7 x10_2/uL
same,APTT,[7],19.3 s
same,Bas,[7],0%
same,Eos,[7],0.6%
same,Fbg,[7],233.6 mg/dL
same,Hb,[7],15 g/dL
same,Lym,[7],82.2%
same,MCH,[7],20.1 pg
same,MCHC,[7],33.6%
same,MCV,[7],59.7 fL
same,Mono,[7],6.4%
same,Plat,[7],119.9 x10_4/uL
same,RBC,[7],750.6 x10_4/ul
same,Ret,[7],5.6%
same,WBC,[7],115.6 x10_2/uL
same,APTT,[8],18.4 s
same,Bas,[8],0%
same,Eos,[8],1%
same,Fbg,[8],288.6 mg/dL
same,Hb,[8],15.3 g/dL
same,Ht,[8],45%
same,Lym,[8],80.4%
same,MCH,[8],19.3 pg
same,MCHC,[8],33.9%
same,MCV,[8],56.9 fL
same,Mono,[8],6.4%
same,Plat,[8],134.2 x10_4/uL
same,RBC,[8],791.2 x10_4/ul
same,Ret,[8],5.2%
same,WBC,[8],109.3 x10_2/uL
same,KIDNEY_L,[6],1.1 g
same,KIDNEY_R,[6],1.1 g
same,KIDNEY_TOTAL,[6],2.2 g
same,KIDNEY_L,[7],1.2 g
same,KIDNEY_R,[7],1.2 g
same,KIDNEY_TOTAL,[7],2.4 g
same,KIDNEY_L,[8],1.7 g
same,KIDNEY_R,[8],1.7 g
same,KIDNEY_TOTAL,[8],3.3 g
same,ALP,[6],838.2 IU/L
same,ALT,[6],31.4 IU/L
same,AST,[6],51.6 IU/L
same,BUN,[6],16 mg/dL
same,CRE,[6],0.6 mg/dL
same,Ca,[6],10.8 mg/dL
same,Cl,[6],107.2 meq/L
same,DBIL,[6],0.01 mg/dL
same,GLC,[6],183.8 mg/dL
same,IP,[6],7.4 mg/dL
same,K,[6],4.7 meq/L
same,LDH,[6],102.6 IU/L
same,Na,[6],140.2 meq/L
same,PL,[6],160.2 mg/dL
same,RALB,[6],3.6 g/dL
same,TBIL,[6],0.4 mg/dL
same,TC,[6],75.2 mg/dL
same,TG,[6],98.4 mg/dL
same,TP,[6],5.6 g/dL
same,gamma-GTP,[6],1.4 IU/L
same,ALP,[7],701.4 IU/L
same,ALT,[7],26.4 IU/L
same,AST,[7],55.8 IU/L
same,BUN,[7],17.6 mg/dL
same,CRE,[7],0.5 mg/dL
same,Ca,[7],10.8 mg/dL
same,Cl,[7],104.4 meq/L
same,DBIL,[7],0.042 mg/dL
same,GLC,[7],172 mg/dL
same,IP,[7],7.9 mg/dL
same,K,[7],4.2 meq/L
same,LDH,[7],92 IU/L
same,Na,[7],141.4 meq/L
same,PL,[7],152.6 mg/dL
same,RALB,[7],3.9 g/dL
same,TBIL,[7],0.4 mg/dL
same,TC,[7],64.4 mg/dL
same,TG,[7],88 mg/dL
same,TP,[7],5.8 g/dL
same,gamma-GTP,[7],1.2 IU/L
same,ALP,[8],453.2 IU/L
same,ALT,[8],24.6 IU/L
same,AST,[8],35.8 IU/L
same,BUN,[8],24.8 mg/dL
same,CRE,[8],0.7 mg/dL
same,Ca,[8],10.9 mg/dL
same,Cl,[8],106.6 meq/L
same,DBIL,[8],0.04 mg/dL
same,GLC,[8],175.6 mg/dL
same,IP,[8],7.3 mg/dL
same,K,[8],4.3 meq/L
same,LDH,[8],96.2 IU/L
same,Na,[8],141.2 meq/L
same,PL,[8],174.6 mg/dL
same,RALB,[8],3.9 g/dL
same,TBIL,[8],0.3 mg/dL
same,TC,[8],70.6 mg/dL
same,TG,[8],152.2 mg/dL
same,TP,[8],6.1 g/dL
same,gamma-GTP,[8],2.4 IU/L
